This is an account of results in patent US9161944B2, “Method for preventing cancer metastasis” (INSERM (INSTITUT NATIONAL DE LA SANTE ET DE LA SANTE ET DE …, priority 2010, dated 2015).

One assay relates to MDA-MB-435s-luc cells. Kind of assay: Mammary fat pad (MFP)-model tumor. The note with it: 15 mg/kg i.v. three times a week. Format: in vivo, NMRI nude mice. As for the experimental part:
FIG. 10. Anti-metastatic effect of JPH1701 on experimental metastasis model. Two millions of MDA-MB-435s-luc cells pre-treated for 24 hours with JPH1701 (1 μM) or vehicle were grafted in MFP of NMRI/Nude mice. Mice were treated three times a week with JPH1701 at 15 mg/kg in i.v. or with vehicle during all the experiments (14-15 weeks). The primary tumor was surgical removed when its volume attempted 500 mm3 (6-7 weeks post-graft). Mice were euthanized 7-8 weeks after surgical removed of the primary tumor. FIG. 10A-B) In vivo BLI of metastases from mice treated with vehicle (FIG. 10A) or with JPH1701 (FIG. 10B) before euthanasia. FIG. 10C) Number of tissue with metastases detected ex vivo by bioluminescence (including lymph nodes, lungs, rachis and bone legs) after euthanasia. FIG. 10D) Metastatic score of mice treated with vehicle or with JPH1701. Two parameters were used to assess the metastatic score of each mouse: (i) Number of tissue or organ with metastases detected ex vivo by BLI and (ii) BLI intensity (photon/min) of each metastasis. […] The score of each cohort (sum of individually score) represents the degree of metastatic development assessed in vivo by BLI.
Two millions of MDA-MB-435s-luc cells pre-treated for 24 hours with JPH1701 (1 μM) or vehicle were grafted in MFP of NMRI/Nude mice. […] Two weeks post-graft, primary tumors were measured, weekly, during 6 weeks in three dimensions with a caliper and tumor volume was calculated (black circles: vehicle, open circles: JPH1701). […] Two weeks post-graft, the number of cancer cells in the primary tumor was evaluated weekly during 6 weeks by BLI imaging (black circles: vehicle, open circles: JPH1701). […]
The growth of primary tumors was weekly evaluated by caliper measurement and by bioluminescence imaging (BLI). The tumor volume was calculated as length×width×depth and the primary tumor was surgical removed when its volume attempted 500 mm3 (6-7 weeks post graft). Mice were euthanized 8 weeks after tumor excision and metastases were detected ex vivo by bioluminescence imaging in lymph nodes, lungs, rachis, and bone legs. […]

Another assay has as its target SK3/KCa2.3 channel (Homo sapiens, UniProt Q9UGI6). Put plainly: Whole-cell patch clamp on HEK293 cells expressing SK3. It counts as cell-based. More on the design: expressed in transfected cells; host or cells: HEK293, lentiviral transduction, clonal selection. As for the experimental part: The percentages of inhibition represent the ratio (SK3 current amplitude and chord conductance (in the presence of 10 μM JPH1701)/SK3 current amplitude in control experiments). Black bars show current at 0 mV and grey bars indicate the chord conductance. […] Columns, mean, bars, SEM, (5 cells for racemic mix and 4 cells for + and − forms).
MDA-MB-435s and HEK293 cells were transduced with lentiviral vector at multiplicities of infection (MOI) of 1 to 3 in the presence of polybrene (4 μg/ml, Sigma).
Experiments were performed with cells seeded into 35-mm Petri dishes at 3000 cells per cm2. All experiments were performed using the conventional whole-cell recording configuration of the patch-clamp technique as previously described. PCa solution was 7 and 6.4 respectively for MDA-MB-435s and HEK293-SK3/KCa2.3 cells.
Briefly, experiments were conducted using Axopatch 200B patch-clamp amplifier (Axon Instrument) and data, digitized with 1322-A Digidata converter (Axon Instrument), were stored on a computer using Clampex of pClamp 9.2 software (Axon Instru-ment). The patch-clamp data was analyzed using both Clampfit 9.2 and Origin 7.0 software (Microcal Inc., Northampton, Mass., USA).
The pipette solution for the whole-cell recordings contained (in mM): K-glutamate 125, KCl 20, MgCl2 1, Mg-ATP 1, HEPES 10, and pH was adjusted to 7.2 with KOH and various concentrations of CaCl2 and EGTA were added to obtain calculated pCa=7 (0.37 mM CaCl2 and 10 mM EGTA) or pCa=6.4 (0.7 mM CaCl2 and 1 mM EGTA).
We next developed HEK cells expressing SK3/KCa2.3 channel in order to test directly analogues on SK3 activity measured using patch-clamp technique (FIG. 8). […] The JPH1701-induced inhibition of SK3 current was analysed at 0 mV and the entire time course of the experiment is depicted in FIG. 8A.
Current activity has been measured in HEK 293 LvSK3 and in MDA-MB-435s cells. The percentages represent the inhibition of current and of conductance by compounds on SK3 channel in HEK 293 cells.
On the technique in general: The patch-clamp technique gives a direct electrical read-out from membranes.

Consider “hexadecyloxy-2-O-methyl-sn-glycerol-lactose [JPH1701]”, for which, in the assay with MDA-MB-435s-luc cells (14-15 weeks, FIG. 10D), the “Metastatic score versus vehicle (Rank Sum Test)” value is given as “significantly different”. Further, the “Number of cancer cells in the primary tumor (BLI) versus vehicle” value in the assay on MDA-MB-435s-luc cells (6 weeks, FIG. 12B) was “did not highlighted any significant difference”. Further, the “Time course of primary tumor volume versus vehicle” value in the assay with MDA-MB-435s-luc cells (over 6 weeks, FIG. 12A) was “no difference”. Moreover, on SK3/KCa2.3 channel (10 μM, FIG. 9B, ranking SK3>SK1), the “Effect on SK3 current amplitude at 0 mV” value was “significantly reduced”. Further, the “Reduction of the amplitude of the SK3 current at 0 mV” value on SK3/KCa2.3 channel (10 μM, after 120 sec) was “about 70%”. The “Time needed to reduce 50% of the amplitude of the current” value on SK3/KCa2.3 channel (0.3, 1 and 10 μM, whatever the concentration) was “approximately 40 sec”. The substance further returned a Conductance decreasing at SK3/KCa2.3 channel (HEK 293 LvSK3 cells) of 66.1 ± 1.5%. At SK3/KCa2.3 channel (HEK 293 LvSK3 cells, 10 μM stated for JPH1701), the “Inhibition of I at 0 mV” value was 70.1 ± 1.4%.
